# Reference: patent publication US6156757A, “1,2,3,4-tetrahydro-benzofuro[3,2-C]pyridine derivatives” (Janssen Pharmaceutica N.V., priority 1997, dated 2000)
# Columns and labels:
# α2 -adrenoceptor = experiment: Xylazine-induced loss of righting reflex in rats; format: in vivo; conditions: one hour before xylazine 15 mg/kg i.v., male rats, lowest tested dose at which at least 66% of animals showed no loss of righting reflex
# Protocol: This test is based upon the fact that centrally acting α2 -adrenoceptor antagonists reverse the loss of righting reflex induced by an intravenous injection of the α2 agonist xylazine. One hour before injection of xylazine (15 mg/kg, i.v.), male rats (200-250 g) were pretreated with a test compound (er os (p.o.) or subcutaneously (s.c.)) or solvent.
# [1] = target: T1, cloned human α2C receptors (Homo sapiens, UniProt P18825); experiment: In vitro binding affinity for α2C receptors (3H-rauwolscine competition binding); conditions: at a test concentration of 10^-8 M or less; CHO cell expressing cloned human α2C receptors
# T1 construct: expressed in transfected cells; host or cells: CHO cells
# T1 sequence (P18825 1-462): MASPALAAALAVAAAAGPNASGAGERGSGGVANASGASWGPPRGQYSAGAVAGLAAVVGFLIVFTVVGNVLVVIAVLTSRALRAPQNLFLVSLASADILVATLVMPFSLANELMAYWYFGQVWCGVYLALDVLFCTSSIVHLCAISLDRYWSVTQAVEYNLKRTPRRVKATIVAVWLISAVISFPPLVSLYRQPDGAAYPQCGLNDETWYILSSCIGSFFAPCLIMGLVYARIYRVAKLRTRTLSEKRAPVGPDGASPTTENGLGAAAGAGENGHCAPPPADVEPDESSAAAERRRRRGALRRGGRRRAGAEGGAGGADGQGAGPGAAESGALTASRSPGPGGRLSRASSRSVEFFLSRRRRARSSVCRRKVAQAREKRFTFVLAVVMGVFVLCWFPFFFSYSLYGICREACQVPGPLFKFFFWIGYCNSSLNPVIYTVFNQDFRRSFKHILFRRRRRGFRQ
# [2] = target: T2, cloned human α2A receptors (Homo sapiens, UniProt P08913); experiment: In vitro binding affinity for α2A receptors (3H-rauwolscine competition binding); conditions: at a test concentration of 10^-8 M or less; CHO cell expressing cloned human α2A receptors
# T2 sequence (P08913 1-465): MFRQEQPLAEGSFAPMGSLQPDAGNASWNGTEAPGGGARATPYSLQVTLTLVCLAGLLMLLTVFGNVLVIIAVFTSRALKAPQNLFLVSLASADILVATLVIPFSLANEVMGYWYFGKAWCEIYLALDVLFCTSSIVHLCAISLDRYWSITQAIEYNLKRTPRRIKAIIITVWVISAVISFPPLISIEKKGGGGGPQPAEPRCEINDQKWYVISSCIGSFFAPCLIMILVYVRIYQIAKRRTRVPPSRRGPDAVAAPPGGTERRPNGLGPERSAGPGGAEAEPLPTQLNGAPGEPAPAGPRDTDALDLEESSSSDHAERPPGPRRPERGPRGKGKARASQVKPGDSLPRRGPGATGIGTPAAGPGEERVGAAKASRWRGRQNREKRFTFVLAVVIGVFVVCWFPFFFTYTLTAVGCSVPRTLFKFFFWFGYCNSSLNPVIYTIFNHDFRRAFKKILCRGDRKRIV
# Protocol: The interaction of the compounds of formula (I) with α2 receptors was assessed in in vitro radioligand binding experiments.
# In general, a low concentration of a radioligand with a high binding affinity for a particular receptor is incubated with a sample of a tissue preparation enriched in a particular receptor or with a preparation of cells expressing cloned human receptors in a buffered medium. During the incubation, the radioligand binds to the receptor. When equilibrium of binding is reached, the receptor bound radioactivity is separated from the non-bound radioactivity, and the receptor bound activity is counted. The interaction of the test compounds with the receptor is assessed in competition binding experiments. Various concentrations of the test compound are added to the incubation mixture containing the receptor preparation and the radioligand. Binding of the radioligand will be inhibited by the test compound in proportion to its binding affinity and its concentration.
# The radioligand used for α2A receptor binding is ^3 H-rauwolscine and the receptor preparation used is the Chinese Hamster Ovary (CHO) cell expressing cloned human α2A receptors.
inhibition at up to 0.01 µM [1],inhibition [2],Structure (SMILES),LAD in mg/kg (lowest active dose for xylazine antagonism) (α2 -adrenoceptor; s.c.),LAD in mg/kg (lowest active dose for xylazine antagonism) (α2 -adrenoceptor; p.o.)
,,"Cc1nc2sccn2c(=O)c1CCN1CCc2oc3ccccc3c2C1 [Compound 1, 6-[[3,4-dihydrobenzofuro[3,2-c]pyridin-2(1H)-yl]ethyl]-7-methyl-5H-thiazolo-[3,2-a]pyrimidin-5-one]",0.63 mg/kg,
,,Cc1nc2n(c(=O)c1CCN1CCc3oc4ccccc4c3C1)CCCC2 [Compound 2],,1.25 mg/kg
,,"Cc1nc2ccccn2c(=O)c1CCN1CCc2oc3ccccc3c2C1 [Compound 3, 3-[2-[3,4-dihydrobenzofuro[3,2-c]pyridin-2(1H)-yl]ethyl]-2-methyl-4H-pyrido[1,2-a]pyrimidin-4-one]",0.08 mg/kg,0.31 mg/kg
,,Cc1cc2nc(C)c(CCN3CCc4oc5ccccc5c4C3)c(=O)n2o1 [Compound 4],,1.25 mg/kg
,,"Cc1nc2scc(C)n2c(=O)c1CCN1CCc2oc3ccccc3c2C1 [Compound 5, 6-[[3,4-dihydrobenzofuro[3,2-c]pyridin-2(lH)-yl]ethyl]-3,7-dimethyl-5H-thiazolo-[3,2-a]pyrimidin-5-one]",0.63 mg/kg,
,,Cc1nc2n(c(=O)c1CCN1CCc3oc4ccccc4c3C1)CCS2 [Compound 6],0.63 mg/kg,
> 50%,,Cc1nc2n(C)c(C)cn2c(=O)c1CCN1CCc2oc3ccccc3c2C1 [Compound 8],,
> 50%,,Cc1nc2n(c(=O)c1CCN1CCc3oc4ccccc4c3C1)CCCC2C (stereo not shown) [Compound 13],,
> 50%,,O=c1c(CCN2CCc3oc4ccccc4c3C2)c(Cc2ccccc2)nc2ccccn12 [Compound 14],,
,,Cc1nc2sccn2c(=O)c1CCN1CCc2oc3ccc(F)cc3c2C1 [Compound 16],,10.00 mg/kg
,> 50%,Cc1nc2ccccn2c(=O)c1CCN1CCc2oc3ccc(F)cc3c2C1 [Compound 17],10.00 mg/kg,10.00 mg/kg
,> 50%,Cc1nc2n(c(=O)c1CCN1CCc3oc4ccc(F)cc4c3C1)CCCC2 [Compound 18],10.00 mg/kg,
,,Cc1ccc2oc3c(c2c1)CN(CCc1c(C)nc2sccn2c1=O)CC3 [Compound 19],10.00 mg/kg,
,,Cc1nc2ccccn2c(=O)c1CCN1CCc2oc3c([N+](=O)[O-])cccc3c2C1 [Compound 22],,10.00 mg/kg
> 50%,,Cc1nc2ccccn2c(=O)c1CCN1CCc2oc3c(Cl)cccc3c2C1 [Compound 23],2.50 mg/kg,
,,Cc1nc2ccccn2c(=O)c1CCN1CCc2oc3ccc(Cl)cc3c2C1 [Compound 24],,10.00 mg/kg
,,Cc1nc2n(c(=O)c1CCN1CCc3oc4ccccc4c3C1)CCCC2C (stereo not shown) [Compound 25],,10.00 mg/kg
,,Cc1nc2ccccn2c(=O)c1CCCN1CCc2oc3ccccc3c2C1 [Compound 26],10.00 mg/kg,
,,Cc1nc2sccn2c(=O)c1CCCN1CCc2oc3ccccc3c2C1 [Compound 27],10.00 mg/kg,

inhibition at up to 0.01 µM [1],inhibition [2],Structure (SMILES),LAD in mg/kg (lowest active dose for xylazine antagonism) (α2 -adrenoceptor; s.c.),LAD in mg/kg (lowest active dose for xylazine antagonism) (α2 -adrenoceptor; p.o.)
,,Cc1nc2n(c(=O)c1CCN1CCc3oc4ccccc4c3C1)CCCS2 [Compound 28],0.63 mg/kg,
,,O=c1c(CCN2CCc3oc4ccccc4c3C2)c(Cc2ccccc2)nc2ccccn12 [Compound 29],10.00 mg/kg,
,,Cc1nc2ccc(Cl)cn2c(=O)c1CCN1CCc2oc3ccccc3c2C1 [Compound 32],0.04 mg/kg,
> 50%,> 50%,"Cc1ccc2nc(C)c(CCN3CCc4oc5ccccc5c4C3)c(=O)n2c1 [Compound 34, 3-[2-[3,4-dihydrobenzofuro[3,2-c]pyridin-2(1H)-yl]ethyl]-2,7-dimethyl-4H-pyrido-[1,2-a]pyrimidin-4-one]",0.16 mg/kg,
,,Cc1nc2c(O)cccn2c(=O)c1CCN1CCc2oc3ccccc3c2C1 [Compound 35],10.00 mg/kg,
,,Cc1ccn2c(=O)c(CCN3CCc4oc5ccccc5c4C3)c(C)nc2c1 [Compound 36],0.63 mg/kg,
,,Cc1cc(C)n2c(=O)c(CCN3CCc4oc5ccccc5c4C3)c(C)nc2c1 [Compound 37],10.00 mg/kg,
,,Cc1nc2cccc(C)n2c(=O)c1CCN1CCc2oc3ccccc3c2C1 [Compound 39],0.63 mg/kg,
,,Cc1nc2c(Cl)cc(Cl)cn2c(=O)c1CCN1CCc2oc3ccccc3c2C1 [Compound 40],,10.00 mg/kg
> 50%,> 50%,c1ccc2sc(NCCCCCN3CCc4oc5ccccc5c4C3)nc2c1 [Compound 48],10.00 mg/kg,
,> 50%,c1ccc2sc(NCCCN3CCc4oc5ccccc5c4C3)nc2c1 [Compound 49],10.00 mg/kg,
> 50%,,c1ccc2sc(NCCCCN3CCc4oc5ccccc5c4C3)nc2c1 [Compound 50],10.00 mg/kg,
,,"c1ccc2sc(NCCN3CCc4oc5ccccc5c4C3)nc2c1 [Compound 51, N-2-benzothiazole-3,4-dihydrobenzofuro[3,2-c]pyridin-2(1H)-ethanamine (E)-2-butenedioate (1:1)]",10.00 mg/kg,
> 50%,> 50%,CSc1nc(C)c(CCN2CCc3oc4ccccc4c3C2)c(=O)n1C [Compound 55],,10.00 mg/kg
,,Cc1ccc(C(=O)N2CCCC(CN3CCc4oc5ccccc5c4C3)C2)cc1 (stereo not shown) [Compound 57],,10.00 mg/kg
> 50%,,"Cc1ccc(C(=O)N2CCC(CN3CCc4oc5ccccc5c4C3)CC2)cc1 [Compound 58, 4-[(3,4-dihydrobenzofuro[3,2-c]pyridin-2(1H)-yl)methyl]-1-(4-methylbenzoyl)piperidine]",,2.50 mg/kg
,,Cn1c(=O)c2c(ncn2CCN2CCc3oc4ccccc4c3C2)n(C)c1=O [Compound 59],10.00 mg/kg,
,> 50%,O=c1oc2ccccc2n1CCCN1CCc2oc3ccccc3c2C1 [Compound 60],,10.00 mg/kg
> 50%,> 50%,"COc1cccn2c(=O)c(CCN3CCc4oc5ccccc5c4C3)c(C)nc12 [Compound 65, 3-[2-[3,4-dihydrobenzofuro[3,2-c]-pyridin-2(1H)-yl]ethyl]-9-methoxy-2-methyl-4H-pyrido[1,2-a]pyrimidin-4-one]",0.63 mg/kg,
